Earlier results in US7964610B2, “Buprenorphine derivatives and uses thereof” (Reckitt Benckiser Healthcare (UK) Limited, priority 2006, dated 2011).

CO[C@]12CCC3(C[C@@H]1[C@](C)(O)C(C)(C)C)[C@H]1Cc4ccc(O)c5c4[C@@]3(CCN1CC1CC1)[C@H]2O5 [buprenorphine]
bioavailability when taken orally (oral (swallowed)): ~5%
bioavailability when absorbed sublingually (sublingual): approximately fifty
